Values quoted from earlier work as cited in patent publication US5441941A, “1,2-dihydroellipticines with activity against CNS specific cancer” (The United States of America as represented by the …, priority 1993, dated 1995).
Read-outs that look alike come from different tables or passages of the source.

What was measured:
mammary cancer = conditions: in vivo; cited from earlier work
[1] = tested on: mouse lymphoid leukemia L-1210; conditions: cited from earlier work
P388 = conditions: cited from earlier work
B16 melanoma = conditions: cited from earlier work
colon carcinoma = conditions: cited from earlier work
M5076 reticulosarcoma = conditions: cited from earlier work
Sarcoma 180 (solid) = conditions: in vivo; cited from earlier work
SF126 = conditions: human glioma line; cited from earlier work
SF375 = conditions: human glioma line; cited from earlier work
SF407 = conditions: human glioma line; cited from earlier work

Cc1c2cc[n+](C)cc2c(C)c2c1[nH]c1ccc(O)cc12 [Celiptium, 2-methyl-9-hydroxyellipticinium acetate]
effect against mammary cancer (mammary cancer): effective against mammary cancer

CCN(CC)CC[n+]1ccc2c(C)c3[nH]c4ccc(O)cc4c3c(C)c2c1 [datelliptium, 2-[(2-diethylamino)ethyl]-9-hydroxyellipticinium]
antitumor activity ([1]; mouse, in vivo): in vivo activity
in vivo activity (P388): in vivo activity
in vivo activity (B16 melanoma): in vivo activity
in vivo activity (colon carcinoma): in vivo activity
in vivo activity (M5076 reticulosarcoma): in vivo activity

Cc1c2ccncc2c(C)c2c1[nH]c1ccccc12 [ellipticine, 5, 11-dimethyl-6H-pyrido [4,3-b] carbazole]
antitumor activity ([1]; mouse L-1210 leukemia): effective against the tumor of animals
effect against tumor of animals (Sarcoma 180 (solid)): effective against the tumor of animals

Cc1c2ccncc2c(C)c2c1[nH]c1ccc(O)cc12 [9-hydroxyellipticine, 9-hydroxy-5,11-dimethyl-(6H) -pyrido [4,3-b] carbazole]
antitumor activity ([1]; mouse L-1210 leukemia): considerably high antitumor properties

Cc1c2cc[n+](C)cc2c(C)c2c1[nH]c1ccc(O)cc12 [elliptinium]
in vitro activity (SF126): in vitro activity
in vitro activity (SF375): in vitro activity
in vitro activity (SF407): in vitro activity
